Tests used:
surfactant C = surfactant C in mouse pulmonary tissue, western blotting; assay type: in vivo, mice; conditions: compared to oil group
Experimental: (§1) 24 C57B/L6 mice (age: four weeks) were separated into four groups (6 mice in each group). […]
The samples of mice pulmonary tissue provided by Example 7 and preserved at −20° C. were removed from storage, and then ground in liquid nitrogen. […] The expressions of TGF-β protein, smad3 protein and surfactant C in the samples of each group were measured with western blotting, wherein the actin served as an internal control.

type I collagen = test: Type I collagen expression in transfected NHLF (pcDNA3.1 empty vector or pcDNA3.1-SOX2), western blotting (2-3); assay type: cell-based, human; conditions: TGF-β1 5 ng/ml 12 h
Experimental: The pcDNA3.1 empty vector and the pcDNA3.1-SOX2 plasmid (i.e., pcDNA3.1 vector containing SOX2 gene) were respectively transfected into Normal Human lung fibroblasts (NHLF) by the Fugene HD cell transfection reagent. The cells were screened to obtain NHLFs containing the pcDNA3.1 empty vector or the pcDNA3.1-SOX2 plasmid.
NHLFs containing the pcDNA3.1 empty vector were then seeded into 6 cm culture dishes at a density of 2×10^5 cells/dish, comprising a control group and three experimental groups (4 dishes in total). The cells were cultured until the next day, and then the mediums were removed. Each group was respectively treated under the following conditions to conduct follow-up experiments: • (1) Control group I: cells were cultured in a FGM-2 medium containing 1% serum for 36 hours; • (2) Group A: cells were cultured in a FGM-2 medium containing 1% serum and TGF-β1 (5 ng/ml) for 36 hours; • (3) Group B: cells were firstly cultured in a FGM-2 medium containing 1% serum and TGF-β1 (5 ng/ml) for 12 hours, and then compound (1) was added into the medium to provide a final concentration of 15 μg/ml; thereafter, the cells were cultured for another 24 hours; and • (4) Group C: cells were firstly cultured in a FGM-2 medium containing 1% serum and TGF-β1 (5 ng/ml) for 12 hours, and then compound (1) was added into the medium to provide a final concentration of 30 μg/ml; thereafter, the cells were cultured for another 24 hours.
In another aspect, NHLFs containing the pcDNA3.1-SOX2 plasmid were seeded into the 6 cm culture dishes at a density of 2×10^5 cells/dish, comprising a control group and three experimental groups (4 dishes in total). The cells were cultured until the next day, and then the mediums were removed. Each group was respectively treated under the following conditions to conduct follow-up experiments: • (1) Control group II: cells were cultured in a FGM-2 medium containing 1% serum for 36 hours; • (2) Group D: cells were cultured in a FGM-2 medium containing 1% serum and TGF-β1 (5 ng/ml) for 36 hours; • (3) Group E: cells were firstly cultured in a FGM-2 medium containing 1% serum and TGF-β1 (5 ng/ml) for 12 hours, and then the compound (1) was added into the medium to provide a final concentration of 15 μg/ml; thereafter, the cells were cultured for another 24 hours; and • (4) Group F: cells were firstly cultured in a FGM-2 medium containing 1% serum and TGF-β1 (5 ng/ml) for 12 hours, and then the compound (1) was added into the medium to provide a final concentration of 30 μg/ml; thereafter, the cells were cultured for another 24 hours.
Thereafter, the proteins in the cells of each group were extracted, and the expressions of Sox2 protein, TGF-β protein and type I collagen in the NHLF cells of each group were measured with western blotting. […]

[1] = test system: C57B/L6 mice injected with Bleomycin sulfate (inducer of pulmonary fibrosis); test: Pulmonary fibrosis score (Ashcroft, 0 to 8) in Bleomycin sulfate mice; assay type: in vivo; conditions: compared to oil group
Experimental: as §1
After completing the measurement of the pulmonary function in Example 6, the mice were sacrificed. […] One of the two groups was preserved at −20° C. for the follow-up experiment, and the other group was analyzed by hematoxylin-sosin stain (H&E stain). […]

[2] = High-dose group, compound (1) 50 mg/kg orally daily 30 days
[3] = Low-dose group, compound (1) 10 mg/kg orally daily 30 days

CCCC=C1OC(=O)c2ccccc21 [compound (1)]
expression level of surfactant C in pulmonary tissue (surfactant C; [2]): significantly higher | expression level of surfactant C in pulmonary tissue (surfactant C; [3]): significantly higher | Relative expression level (fold) Type I collagen (type I collagen; Group B: NHLF with pcDNA3.1 empty vector, then compound (1) 15 μg/ml 24 h, control group I = 1, TGF-β1-only group A = 5.83): 3.74 fold | Relative expression level (fold) Type I collagen (type I collagen; Group C: NHLF with pcDNA3.1 empty vector, then compound (1) 30 μg/ml 24 h, control group I = 1, TGF-β1-only group A = 5.83): 0.88 fold | Relative expression level (fold) Type I collagen (type I collagen; Group E: NHLF with pcDNA3.1-SOX2 plasmid, then compound (1) 15 μg/ml 24 h, control group II = 1, TGF-β1-only group D = 1.57): 1.30 fold | Relative expression level (fold) Type I collagen (type I collagen; Group F: NHLF with pcDNA3.1-SOX2 plasmid, then compound (1) 30 μg/ml 24 h, control group II = 1, TGF-β1-only group D = 1.57): 1.29 fold | pulmonary fibrosis score [1, 2]: significantly decreased | pulmonary fibrosis score [1, 3]: significantly decreased

From patent US20170333391A1, “METHOD FOR DELAYING THE ONSET OF PULMONARY FIBROSIS OR TREATING PULMONARY FIBROSIS” (EVERFRONT BIOTECH INC., priority 2016, published 2017)
